Consider three molecules from paper PMC10831786 (Virus Research, 2024).

Several values for one entry are separate records, joined by “and”; a condition that tells them apart may be missing. Equal entries are not always repeated. Structures can show the parent of a compound that is named as a salt. Where two headings read alike, the source gives them in different places.

The subject of data set [1] is protein synthesis in Vero E6 cells. As to the kind of experiment: Puromycin pulse labeling, protein synthesis in cultured Vero E6 cells. Conditions: for IC50: Chlorocebus sabaeus. Format: cell-based, African green monkey. The protocol:
Vero E6 cells were seeded at 30,000 cells per cm^2 in 6-well plates. […] Control experiments were conducted in medium alone and medium containing cycloheximide or DMSO. After 12 min, cells were washed with 37° PBS and then allowed to recover in drug-free 2 % FBS-EMEM for 30 min. Cell pellets, collected by trypsinization and centrifugation for 5 min at 5 000 rpm at 4 °C, were re-suspended in ice-cold PBS and centrifugation was repeated. Collected cells were stored at −80 °C.
Antibodies used were anti-puromycin monoclonal (TFS; MABE34), goat anti-mouse-HRP (TFS, Invitrogen; G21040), rabbit anti-β-actin (Cell Signaling, 4967S, lot 9) and HRP-conjugated goat-anti-rabbit (Cell Signaling, 7074S, lot 27). Protein extract and immunoblotting methods were done by standard methods reported here as Supplementary Information.
Vero E6 cells were seeded at 30,000 cells per cm^2 in 6-well plates. […] Puromycin labelling protocols have been well established by other laboratories and a general review of the methods has been published^79. Control experiments were conducted in medium alone and medium containing cycloheximide or DMSO. Following incubation with puromycin for 12 min, the medium was quickly removed and cells were washed with warm PBS and then allowed to recover in drug-free 2% FBS-EMEM for 30 min. Cell pellets, collected by trypsinization and centrifugation for 5 min at 5 000 rpm at 4°C, were re-suspended in ice-cold PBS and the centrifugation was repeated. Collected cells were stored at -80°C until subjected to the protein preparation as noted below.
Defrosted cell pellets were re-suspended in 120 µl of RIPA (radio-immunoprecipitation) buffer (Sigma; R0278) containing 7 µl of protease inhibitors (Sigma; P8340). Samples were incubated on ice for 40 min with occasional gentle mixing. Cell debris was removed by a 20 min centrifugation at 16,000 g at 4°C and supernatants were stored at -80°C. Protein was measured by the Pierce^TM bicinchoninic acid (BCA) assay (Thermo Fisher Scientific [TFS], MA, USA; 23250), using bovine serum albumin as a standard, according to protocols recommended by the manufacturer.
For immunoblotting, 10 µg of protein was combined with Laemmli buffer containing 10% β-mercaptoethanol, heated at 95°C for 5 min and loaded on 4-20% Mini-PROTEAN® TGX™ precast protein gels. Samples were resolved by electrophoresis in Tris-Gly-SDS buffer and transferred to nitrocellulose membranes. Transfer was conducted in Tris-Gly buffer containing 20% methanol at 4-6 V/cm^2 for one hour. Membranes were blocked in 10 mM sodium phosphate buffer containing 150 mM NaCl (pH 7.8), 5% milk and 0.1% TWEEN20 (PBST) at room temperature for at least one hour, and then incubated overnight with primary anti-puromycin antibodies (TFS; MABE343 mouse monoclonal antibodies clone 12D10; 1:12,500) at 4°C. Membranes were washed for five minutes three times in PBST and incubated with secondary goat anti-mouse horseradish peroxidase (HRP) -conjugated antibodies (TFS, Invitrogen; G21040; 1:25,000) for 90 min. After three more rounds of washing as above, membranes were incubated with an HRP substrate (TFS; 34077) for one minute and chemoluminescence was visualized by exposing membranes to film for 1, 2, 5, 10 and 30 min.
For β-actin staining, the same membranes used for puromycin immunostaining were washed four times, 5 min each, in 20 mM Tris-buffered saline containing 500 mM sodium chloride (pH 7.5) and 0.1% TWEEN20 (TBST) and stripped by two rounds of 20 and 10 min washes at 50°C in glycine buffer (pH 2.2) containing 0.1 % SDS (W/V) and 1% TWEEN20. Membranes were then washed at room temperature with PBS (3x10 min) and PBST (2x5min). Blocking, primary (1:4,000) and secondary (1:5,000) antibody staining was conducted as above. Primary rabbit anti-β-actin antibodies were obtained from Cell Signaling (4967S, lot 9) and secondary HRP-conjugated goat-anti-rabbit antibodies were from the same company (7074S, lot 27). […]

Data set [2] addresses T1, l-type calcium current ICaL (Cavia porcellus, UniProt O35505).
T1 construct: from tissue; host or cells: freshly dissociated guinea pig ventricular myocytes
Description: Patch clamp recording of ICaL in guinea pig ventricular myocytes. Conditions: for IC50: GP cardiomyocytes, read-out: IC50, calcium channel (ICaL) blocking activity; for Kd: guinea pig ventricular myocytes, Langmuir isotherm, 5-60 μM, read-out: KD for inhibition of ICaL. Format: cell-based. On the technique in general: Patch clamp records ionic current or voltage across a cell membrane.

Data set [3] deals with protein synthesis in rabbit reticulocyte lysate. As to the kind of experiment: Inhibition of protein synthesis in rabbit reticulocyte lysates (luciferase mRNA translation). It counts as biochemical. The protocol: The TnT® Quick Coupled Transcription/Translation System from Promega (WI, USA; L1170) was used to evaluate inhibitory effects of ipecac alkaloids and cycloheximide on protein synthesis. Assay conditions were employed as recommended by the manufacturer. Briefly, reactions (20 μl) contained 80 % TNT Quick master mix, 20 µM methionine, 40 ng/µL luciferase RNA (Promega; L4561), and test chemicals. Samples were incubated at 30 °C for 90 min and diluted 10-fold with PBS. An aliquot (2 μl) was mixed with 20 μl of luciferase assay reagent (Promega; E1500) and luminescence was measured with a Turner Designs luminometer (model TD-20/20).

Data set [4] concerns SARS-CoV-2. Description: Antiviral activity against SARS-CoV-2 in BEC-hACE2 cells (RT-qPCR).
For data set [5], the system named is BEC-hACE2 cells. As to the kind of experiment: MTS assay, growth inhibition and toxicity in non-infected BEC-hACE2 cells. Format: cell-based, human. Conditions: for MTS, TGI (beginning of the plateau): BEC-hACE2, 24 h. Here is the method: Detailed methods are provided in Supplementary Information.
Vero E6 and BEC-hACE2 cells were grown to 70-80% density in their maintenance media and exposed to various concentrations of ipecac alkaloids (0.0125 – 200 µM) under standard culture conditions for 48-72 h and 24 h, respectively. Controls with varying amounts of DMSO and no DMSO were included also. Vero E6 cells were incubated with drugs in 2% FBS-EMEM, while BEC-HACE2 cells were grown and treated in complete PCS-300-03 medium with supplements. Similar treatments were also conducted using fully confluent non-growing BEC-hACE2 cells. At the end of the exposure period, MTS reagent (Promega G3580) was added at 1/5th of the medium volume and color was allowed to develop by incubation of the plates for an hour in a cell culture incubator. To stop reactions, SDS was added to a final concentration of 2% and optical density of samples was measured at 450 or 490 nm, depending on the model of spectrophotometer (PharmaciaBiotech, NJ, USA; UV spectrophotometer, model Ultrospec2000) or plate reader (Molecular Devices, CA, USA; model Filter Max F5 Multi-mode microplate reader) available at the time of experiment.

[6] abbreviates: Vero C1008, read-out: IC50, host protein synthesis.
The mark [7] stands for this setting: Vero C1008, Vero E6 cells, 1 h exposure, puromycin labeling, read-out: 50 % inhibitory activities, protein synthesis.
Setting [8] is: Severe acute respiratory syndrome coronavirus 2, read-out: Anti-SARS-CoV2, IC50, subconfluent BEC-hACE2, drug after viral absorption, 24 hpi.
The mark [9] stands for this setting: Severe acute respiratory syndrome coronavirus 2, read-out: Anti-SARS-CoV-2 IC50, BEC-hACE2, 24 hpi.

T1 sequence (O35505 whole entry): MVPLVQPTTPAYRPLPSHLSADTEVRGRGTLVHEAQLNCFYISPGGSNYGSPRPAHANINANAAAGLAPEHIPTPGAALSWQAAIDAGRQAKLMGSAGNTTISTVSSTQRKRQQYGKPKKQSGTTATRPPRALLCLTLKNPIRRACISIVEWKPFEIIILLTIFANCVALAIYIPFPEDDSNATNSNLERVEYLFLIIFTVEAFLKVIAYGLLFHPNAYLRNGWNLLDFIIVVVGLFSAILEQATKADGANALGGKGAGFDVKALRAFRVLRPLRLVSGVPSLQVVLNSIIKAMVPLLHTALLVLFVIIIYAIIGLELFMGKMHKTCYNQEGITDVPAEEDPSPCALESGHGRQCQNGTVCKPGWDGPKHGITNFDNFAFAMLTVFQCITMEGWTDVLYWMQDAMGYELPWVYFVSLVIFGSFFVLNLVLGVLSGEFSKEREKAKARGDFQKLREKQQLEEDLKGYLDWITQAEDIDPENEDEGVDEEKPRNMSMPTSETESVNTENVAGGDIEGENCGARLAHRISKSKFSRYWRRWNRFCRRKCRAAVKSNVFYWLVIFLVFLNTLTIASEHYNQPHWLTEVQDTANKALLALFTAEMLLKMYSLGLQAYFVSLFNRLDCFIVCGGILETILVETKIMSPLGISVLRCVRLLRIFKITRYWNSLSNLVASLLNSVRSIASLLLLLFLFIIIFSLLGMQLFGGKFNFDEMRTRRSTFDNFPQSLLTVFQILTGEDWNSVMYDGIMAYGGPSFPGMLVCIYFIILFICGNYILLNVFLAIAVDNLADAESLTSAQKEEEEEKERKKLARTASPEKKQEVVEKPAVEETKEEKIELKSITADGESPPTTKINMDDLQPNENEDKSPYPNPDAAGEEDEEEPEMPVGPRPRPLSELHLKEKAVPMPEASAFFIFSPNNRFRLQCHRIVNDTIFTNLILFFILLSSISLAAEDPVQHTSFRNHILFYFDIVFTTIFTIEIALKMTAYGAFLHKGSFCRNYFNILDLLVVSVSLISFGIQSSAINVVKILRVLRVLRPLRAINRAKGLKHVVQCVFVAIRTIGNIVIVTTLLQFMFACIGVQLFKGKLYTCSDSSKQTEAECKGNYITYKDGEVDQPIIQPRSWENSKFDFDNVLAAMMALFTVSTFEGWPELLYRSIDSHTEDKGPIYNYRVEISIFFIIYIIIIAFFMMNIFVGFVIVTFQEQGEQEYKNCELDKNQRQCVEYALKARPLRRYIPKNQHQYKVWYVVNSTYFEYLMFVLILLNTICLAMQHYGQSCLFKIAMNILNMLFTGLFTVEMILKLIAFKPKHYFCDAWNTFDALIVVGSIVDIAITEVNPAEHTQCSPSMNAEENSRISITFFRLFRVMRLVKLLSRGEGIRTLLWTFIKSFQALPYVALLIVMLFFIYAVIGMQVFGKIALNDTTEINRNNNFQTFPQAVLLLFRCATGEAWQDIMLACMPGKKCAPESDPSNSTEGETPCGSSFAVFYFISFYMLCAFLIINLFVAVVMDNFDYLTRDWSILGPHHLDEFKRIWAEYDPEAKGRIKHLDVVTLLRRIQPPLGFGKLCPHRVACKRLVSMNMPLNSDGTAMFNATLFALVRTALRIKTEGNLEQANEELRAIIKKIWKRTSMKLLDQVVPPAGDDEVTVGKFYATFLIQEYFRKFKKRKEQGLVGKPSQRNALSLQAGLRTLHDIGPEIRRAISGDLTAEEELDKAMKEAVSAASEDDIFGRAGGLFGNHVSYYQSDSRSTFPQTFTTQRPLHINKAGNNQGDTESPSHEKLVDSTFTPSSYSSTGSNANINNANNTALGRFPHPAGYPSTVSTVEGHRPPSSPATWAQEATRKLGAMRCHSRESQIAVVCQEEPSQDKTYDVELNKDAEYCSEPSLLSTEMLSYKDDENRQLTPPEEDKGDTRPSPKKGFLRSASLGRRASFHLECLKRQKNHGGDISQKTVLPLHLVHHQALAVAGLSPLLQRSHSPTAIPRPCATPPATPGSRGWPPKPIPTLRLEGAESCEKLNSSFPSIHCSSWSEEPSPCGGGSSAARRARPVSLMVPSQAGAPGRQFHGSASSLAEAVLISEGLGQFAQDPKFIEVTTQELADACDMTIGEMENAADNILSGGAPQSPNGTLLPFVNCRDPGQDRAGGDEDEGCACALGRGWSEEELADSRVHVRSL

By Kd is commonly meant the free concentration of one partner at which half of the binding sites on the other are occupied at equilibrium, for simple one-to-one binding. With `CCC1=C(C[C@H]2NCCc3cc(OC)c(OC)cc32)C[C@H]2c3cc(OC)c(OC)cc3CCN2C1` [DHE4, 4H-Benzo[a]quinolizine, 3-ethyl-1,6,7,11b-tetrahydro-9,10-dimethoxy-2-[[(1R)-1,2,3,4-tetrahydro-6,7-dimethoxy-1-isoquinolinyl]methyl]-, (11bS)-], the IC50 in data set [1] (setting [6]) was 150 to 170 nM; in data set [1] (setting [7]) it was approximately 210 nM; in data set [2] it was 40000 to 60000 nM; in data set [3] (luciferase mRNA, 30 °C, 90 min), 1300 nM and 1330 nM; in data set [4] (setting [8]), 88 ± 23 nM; in data set [4] (setting [9]), 50 to 100 nM. In addition, the “Protein synthesis,%” value in data set [1] (Vero E6, 0.01 μM) came out at 15%; in data set [1] (Vero E6, 0.1 μM) it was 20%. The “Protein synthesis, puromycilation signal” value in data set [1] (Vero E6, > 10 μM) is reported as “signal increase”. Also, the “Concentration above which inhibition of puromycilation is not sustained” value in data set [1] (Vero E6 cells) was more than 10 µM. The Kd in data set [2] is 54000 nM. Also, the “SI from MTS CC50 (50 % effect)” value in data set [4] (SARS-CoV-2, BEC-hACE2) is “exceed 1500”. Also, in data set [5], the “MTS, TGI (beginning of the plateau)” value turned out to be 125 nM. For the same molecule, the “MTS, decrease” value in data set [5] (BEC-hACE2, at 100 μM) is 40%. Also, in data set [5] (BEC-hACE2, at 100 μM), the “MTS, nature of the effect” value was “cytostatic”. The “MTS, CC50 (50 % effect)” value in data set [5] (sub-confluent BEC-hACE2, 24 h) is reported as “Effect not reached”.
What is called inhibition is how much of the control response was suppressed. As for `CC[C@H]1CN2CCc3cc(OC)c(OC)cc3[C@@H]2C[C@@H]1C[C@H]1NCCc2cc(OC)c(OC)cc21` [Emetine, 2H-Benzoaquinolizine, 3-ethyl-1,3,4,6,7,11b-hexahydro-9,10-dimethoxy-2-(1R)-1,2,3,4-tetrahydro-6,7-dimethoxy-1-isoquinolinylmethyl-, dihydrochloride, (2S,3R,11bS)-, reference compound], the IC50 in data set [1] (setting [6]) is 150 to 170 nM; in data set [1] (setting [7]), approximately 110 nM; in data set [2] it was ~57000 nM and 40000 to 60000 nM; in data set [3] (luciferase mRNA, 30 °C, 90 min), 1200 nM and 1210 nM; in data set [4] (setting [8]), 52 ± 3 nM; in data set [4] (setting [9]) it was approximately 52 nM. The IC50 in data set [4] (read-out: Anti-SARS-CoV-2 IC50, BEC-hACE2, 24 hpi) lay within 50 to 100 nM. Besides, the “Protein synthesis,%” value in data set [1] (Vero E6, 0.01 μM, listed as EMT) was 20%; in data set [1] (Vero E6, 0.03 μM), 50%; in data set [1] (Vero E6, 0.1 μM), 50%; in data set [1] (Vero E6, 1 μM), “terminating all translation activity”; in data set [1] (Vero E6, 1 μM, listed as EMT), 100%. For the same molecule, the “Protein synthesis, puromycilation signal” value in data set [1] (Vero E6, > 10 μM) is recorded as “signal increase”. Further, the “Concentration above which inhibition of puromycilation is not sustained” value in data set [1] (Vero E6 cells) was more than 10 µM. Besides, the “Impact on ICaL” value in data set [2] (0.5 μM) is reported as 1%. Moreover, the inhibition at 5 µM in data set [2] (5 μM) is approximately 10%. Further, the “Estimated reduction in ICaL” value in data set [2] (GP ventricular myocytes, assuming 25 µM) is recorded as “over thirty-three percent”. In addition, the Kd in data set [2] turned out to be 57000 nM. Moreover, the inhibition at 0.5 µM in data set [4] (Severe acute respiratory syndrome coronavirus 2, read-out: Inhibition of viral propagation) is not below 90%. Also, the “MTS, TGI (beginning of the plateau)” value in data set [5] was 125 nM. Further, in data set [5] (BEC-hACE2, at 100 μM), the “MTS, nature of the effect” value is recorded as “cytostatic”.
The term CC50 denotes the concentration that lowers cell viability or growth by half. With `CC[C@H]1CN2CCc3cc(OC)c(OC)cc3[C@@H]2C[C@@H]1C[C@@H]1NCCc2cc(OC)c(OC)cc21.Cl.Cl` [Isoemetine, 2H-Benzoaquinolizine, 3-ethyl-1,3,4,6,7,11b-hexahydro-9,10-dimethoxy-2-(1S)-1,2,3,4-tetrahydro-6,7-dimethoxy-1-isoquinolinylmethyl-, dihydrochloride, (2S,3R,11bS)-], in data set [1] (Vero E6, 0.1 μM), the “Protein synthesis,%” value is given as 0%. Moreover, the “Protein synthesis, puromycilation signal” value in data set [1] (Vero E6, >1 μM) is on record as “signal increase”. For the same molecule, in data set [1] (Vero E6 cells), the “Concentration above which inhibition of puromycilation is not sustained” value is more than 1 µM. The Kd in data set [2] was 42000 nM. Also, in data set [3] (concentration range 0.1 - 100 μM), the “Inhibitory effects on translation in rabbit reticulocyte lysate” value was “no inhibitory effects”. The “IC50, protein synthesis inhibition in rabbit reticulocyte lysate” value in data set [3] (luciferase mRNA, 30 °C, 90 min) is reported as “Not active”. Moreover, the IC50 in data set [4] (read-out: Anti-SARS-CoV2, IC50, subconfluent BEC-hACE2, drug after viral absorption, 24 hpi) came to 16500 nM; in data set [4] (read-out: Anti-SARS-CoV2, IC50, subconfluent BEC-hACE2, drug after viral absorption, 24 hpi, listed as ISOEMT), 16500 ± 6240 nM. Besides, in data set [5] (BEC-hACE2, at 100 μM), the “MTS, nature of the effect” value is “cytotoxic”. The “Concentrations at which cells are affected (MTS)” value in data set [5] (sub-confluent BEC-hACE2, 24 h) is listed as “above 50 μM”. Moreover, the CC50 in data set [5] (sub-confluent BEC-hACE2, 24 h, read-out: MTS, CC50 (50 % effect)) was 100000 nM.
